From patent US11970494B2, “6-heteroaryloxy benzimidazoles and azabenzimidazoles as JAK2 inhibitors” (Ajax Therapeutics, Inc., priority 2021, dated 2024)

What was measured:
[1] = Hepatocyte Stability Assay, rat hepatocytes; format: in vitro ADME; details: cryopreserved hepatocytes, read-out: Rat Heps CLint
Description: (§1) 10 mM stock solutions of test compound and positive control are prepared in DMSO. Stock solutions are diluted to 100 μM by combining 198 μL of 50% acetonitrile/50% water and 2 μL of 10 mM stock solution. Verapamil is used as positive control in the assay. Vials of cryopreserved hepatocytes are thawed in a 37° C. water bath with gently shaking. The contents are poured into the 50 mL thawing medium conical tube. Vials are centrifuged at 100 g for 10 minutes at room temperature. Thawing medium is aspirated and hepatocytes are re-suspended with serum-free incubation medium to yield ˜1.5×10^6 cells/mL. Cell viability and density are counted using a Trypan Blue exclusion, and then cells are diluted with serum-free incubation medium to a working cell density of 0.5×10^6 viable cells/mL. A portion of the hepatocytes at 0.5×10^6 viable cells/mL are boiled for 5 min prior to adding to the plate as negative control to eliminate the enzymatic activity so that little or no substrate turnover should be observed. Aliquots of 198 μL hepatocytes are dispensed into each well of a 96-well non-coated plate. The plate is placed in the incubator for approximately 10 minutes. Aliquots of 2 μL of the 100 μM test compound and 2 μL positive control are added into respective wells of a non-coated 96-well plate to start the reaction. The final concentration of test compound is 1 μM. This assay is performed in duplicate. The plate is incubated in the incubator for the designed time points. 25 μL of contents are transferred and mixed with 6 volumes (150 μL) of cold acetonitrile with internal standard (100 nM alprazolam, 200 nM labetalol, 200 nM caffeine and 200 nM diclofenac) to terminate the reaction at time points of 0, 15, 30, 60, 90 and 120 minutes. Samples are centrifuged for 25 minutes at 3,220 g and aliquots of 150 μL of the supernatants are used for LC-MS/MS analysis.

JAK3 = molecular target: T1, JAK3 (Homo sapiens, UniProt P52333); experiment: JAK Family Selectivity Assay: JAK3 vs JAK2 binding affinity; details: Kd JAK3 over Kd JAK2
T1 construct: made in house; host or cells: T7 phage in BL21-derived E. coli or HEK-293 cells
T1 sequence (P52333 1-1124): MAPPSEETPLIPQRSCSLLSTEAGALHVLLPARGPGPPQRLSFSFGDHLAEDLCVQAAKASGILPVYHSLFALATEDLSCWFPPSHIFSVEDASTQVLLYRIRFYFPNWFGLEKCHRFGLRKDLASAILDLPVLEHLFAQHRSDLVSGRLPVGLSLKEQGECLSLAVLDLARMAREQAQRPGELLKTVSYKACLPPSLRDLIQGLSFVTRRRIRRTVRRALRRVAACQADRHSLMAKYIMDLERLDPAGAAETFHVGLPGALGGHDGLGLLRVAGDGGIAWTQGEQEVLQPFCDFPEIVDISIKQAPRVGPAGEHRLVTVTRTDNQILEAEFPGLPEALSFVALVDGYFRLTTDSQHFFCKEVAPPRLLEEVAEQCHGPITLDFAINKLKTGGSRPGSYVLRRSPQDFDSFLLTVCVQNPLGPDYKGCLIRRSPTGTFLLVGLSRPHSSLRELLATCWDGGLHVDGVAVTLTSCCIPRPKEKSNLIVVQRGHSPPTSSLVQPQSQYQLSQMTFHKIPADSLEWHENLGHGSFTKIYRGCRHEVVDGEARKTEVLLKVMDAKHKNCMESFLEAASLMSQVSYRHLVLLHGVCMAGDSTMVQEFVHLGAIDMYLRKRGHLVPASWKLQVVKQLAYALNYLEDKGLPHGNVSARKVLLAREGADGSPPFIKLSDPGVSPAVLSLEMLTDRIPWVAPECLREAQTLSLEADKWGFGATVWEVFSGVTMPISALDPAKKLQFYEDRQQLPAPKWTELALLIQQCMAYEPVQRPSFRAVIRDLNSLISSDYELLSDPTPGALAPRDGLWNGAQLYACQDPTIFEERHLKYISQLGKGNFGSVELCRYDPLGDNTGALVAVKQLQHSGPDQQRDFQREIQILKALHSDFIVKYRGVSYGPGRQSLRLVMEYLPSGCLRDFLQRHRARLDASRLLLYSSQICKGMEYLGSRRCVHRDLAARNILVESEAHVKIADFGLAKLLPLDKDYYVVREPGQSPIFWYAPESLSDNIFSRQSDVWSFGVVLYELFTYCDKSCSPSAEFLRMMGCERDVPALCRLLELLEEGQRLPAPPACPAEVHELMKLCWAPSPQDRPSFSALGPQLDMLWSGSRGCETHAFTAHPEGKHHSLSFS
Description: Provided compounds are evaluated for selectivity by comparing their JAK2 binding affinity (Kd) in the above JAK2 Binding Assay with their binding affinity (Kd) for one or more other kinases. Binding affinity for other kinases is determined as follows: Kinase-tagged T7 phage strains are prepared in an E. coli host derived from the BL21 strain. E. coli are grown to log-phase and infected with T7 phage and incubated with shaking at 32° C. until lysis. The lysates are centrifuged and filtered to remove cell debris. The remaining kinases are produced in HEK-293 cells and subsequently tagged with DNA for qPCR detection. Streptavidin-coated magnetic beads are treated with biotinylated small molecule ligands for 30 minutes at room temperature to generate affinity resins for kinase assays. The liganded beads are blocked with excess biotin and washed with blocking buffer (SeaBlock (Pierce), 1% BSA, 0.05% Tween 20, 1 mM DTT) to remove unbound ligand and to reduce non-specific binding. Binding reactions are assembled by combining kinases, liganded affinity beads, and test compounds in 1× binding buffer (20% SeaBlock, 0.17×PBS, 0.05% Tween 20, 6 mM DTT). Test compounds are prepared as 111× stocks in 100% DMSO. Kds are determined using an 11-point 3-fold compound dilution series with three DMSO control points. All compounds for Kd measurements are distributed by acoustic transfer (non-contact dispensing) in 100% DMSO. The compounds are then diluted directly into the assays such that the final concentration of DMSO is 0.9%. All reactions are performed in polypropylene 384-well plate. Each has a final volume of 0.02 ml. The assay plates are incubated at room temperature with shaking for 1 hour and the affinity beads are washed with wash buffer (1×PBS, 0.05% Tween 20). The beads are then re-suspended in elution buffer (1× PBS, 0.05% Tween 20, 0.5 μM non-biotinylated affinity ligand) and incubated at room temperature with shaking for 30 minutes. The kinase concentration in the eluates is measured by qPCR. […] In some embodiments, provided compounds may be JAK2-selective over one or more of the following kinases: JAK1, JAK3, and Tyk2.

[2] = Hepatocyte Stability Assay, human hepatocytes; format: in vitro ADME; details: cryopreserved hepatocytes, read-out: Human Heps CLint
Description: as §1

Row | SMILES | CLint scaled at 1 μM [1] [mL/min/kg] | JAK3/JAK2 Kd/Kd ratio (JAK3) | CLint scaled at 1 μM [2] [mL/min/kg]
1 | COC(=O)Nc1cc(Oc2cnc3nc(Nc4cc(C(F)(F)F)cn(C)c4=O)n(C)c3c2C#N)ccn1 [Example I-3, Methyl (4-((7-cyano-1-methyl-2-((1-methyl-2-oxo-5-(trifluoromethyl)-1,2-dihydropyridin-3-yl)amino)-1H-imidazo[4,5-b]pyridin-6-yl)oxy)pyridin-2-yl)carbamate] | < 17 | A (Kd/Kd ratio ≥1000) | ≤ 6
2 | CN(C)C(=O)Nc1cc(Oc2cnc3nc(Nc4cc(C(F)(F)F)cn(C)c4=O)n(C)c3c2C#N)ccn1 [Example I-4, 3-(4-((7-cyano-1-methyl-2-((1-methyl-2-oxo-5-(trifluoromethyl)-1,2-dihydropyridin-3-yl)amino)-1H-imidazo[4,5-b]pyridin-6-yl)oxy)pyridin-2-yl)-1,1-dimethylurea] | 17 to 35 | A (Kd/Kd ratio ≥1000) | ≤ 6
3 | Cn1cc(C(F)(F)F)cc(Nc2nc3ncc(Oc4ccnc(NC(=O)N5CCC5)c4)c(C#N)c3n2C)c1=O [Example I-7, N-(4-((7-cyano-1-methyl-2-((1-methyl-2-oxo-5-(trifluoromethyl)-1,2-dihydropyridin-3-yl)amino)-1H-imidazo[4,5-b]pyridin-6-yl)oxy)pyridin-2-yl)azetidine-1-carboxamide] | 17 to 35 | A (Kd/Kd ratio ≥1000) | ≤ 6
4 | CO[C@H]1CCN(C(=O)Nc2cc(Oc3cnc4nc(Nc5cc(C(F)(F)F)cn(C)c5=O)n(C)c4c3C#N)ccn2)C1 [Example I-14, (S)-N-(4-((7-cyano-1-methyl-2-((1-methyl-2-oxo-5-(trifluoromethyl)-1,2-dihydropyridin-3-yl)amino)-1H-imidazo[4,5-b]pyridin-6-yl)oxy)pyridin-2-yl)-3-methoxypyrrolidine-1-carboxamide] | < 17 | A (Kd/Kd ratio ≥1000) | ≤ 6
5 | Cn1cc(C(F)(F)F)cc(Nc2nc3ncc(Oc4ccnc(NC(=O)OCCN5CCOCC5)c4)c(C#N)c3n2C)c1=O [Example I-15, 2-Morpholinoethyl(4-((7-cyano-1-methyl-2-((1-methyl-2-oxo-5-(trifluoromethyl)-1,2-dihydropyridin-3-yl)amino)-1H-imidazo[4,5-b]pyridin-6-yl)oxy)pyridin-2-yl)carbamate] | < 17 | A (Kd/Kd ratio ≥1000) | ≤ 6
6 | Cn1cc(C(F)(F)F)cc(Nc2nc3ncc(Oc4ccnc(NC(=O)O[C@@H]5CCOC5)c4)c(C#N)c3n2C)c1=O [Example I-18, (R)-Tetrahydrofuran-3-yl(4-((7-cyano-1-methyl-2-((1-methyl-2-oxo-5-(trifluoromethyl)-1,2-dihydropyridin-3-yl)amino)-1H-imidazo[4,5-b]pyridin-6-yl)oxy)pyridin-2-yl)carbamate] | 17 to 35 | A (Kd/Kd ratio ≥1000) | 6 to 12
7 | COC1CN(C(=O)Nc2cc(Oc3cnc4nc(Nc5cc6n(n5)CCCC6(F)F)n(C)c4c3C#N)ccn2)C1 [Example I-26, N-(4-((7-cyano-2-((4,4-difluoro-4,5,6,7-tetrahydropyrazolo[1,5-a]pyridin-2-yl)amino)-1-methyl-1H-imidazo[4,5-b]pyridin-6-yl)oxy)pyridin-2-yl)-3-methoxyazetidine-1-carboxamide] | < 17 |  | 6 to 12
8 | Cn1c(Nc2cc3n(n2)CCOC3(C)C)nc2ncc(Oc3ccnc(NC(=O)O[C@@H]4CCOC4)c3)c(C#N)c21 [Example I-48, (R)-Tetrahydrofuran-3-yl(4-((7-cyano-2-((4,4-dimethyl-6,7-dihydro-4H-pyrazolo[5,1-c][1,4]oxazin-2-yl)amino)-1-methyl-1H-imidazo[4,5-b]pyridin-6-yl)oxy)pyridin-2-yl)carbamate] |  |  | 6 to 12
9 | CN(C)C(=O)Nc1cc(Oc2cnc3nc(Nc4cc5n(n4)CCC54CCC4)n(C)c3c2C#N)ccn1 [Example I-56, 3-(4-((7-cyano-2-((5′,6′-dihydrospiro[cyclobutane-1,4′-pyrrolo[1,2-b]pyrazol]-2′-yl)amino)-1-methyl-1H-imidazo[4,5-b]pyridin-6-yl)oxy)pyridin-2-yl)-1,1-dimethylurea] | 17 to 35 |  | ≤ 6
10 | COC(=O)Nc1cc(Oc2cnc3nc(Nc4cc5n(n4)CCC54CCC4)n(C)c3c2C#N)ccn1 [Example I-57, methyl(4-((7-cyano-2-((5′,6′-dihydrospiro[cyclobutane-1,4′-pyrrolo[1,2-b]pyrazol]-2′-yl)amino)-1-methyl-1H-imidazo[4,5-b]pyridin-6-yl)oxy)pyridin-2-yl)carbamate] | 35 to 45 |  | 6 to 12
11 | CC(=O)Nc1cc(Oc2cnc3nc(Nc4cc5n(n4)CCCC54CC4)n(C)c3c2C#N)ccn1 [Example I-114, N-(4-((7-cyano-2-((6′,7′-dihydro-5′H-spiro[cyclopropane-1,4′-pyrazolo[1,5-a]pyridin]-2′-yl)amino)-1-methyl-1H-imidazo[4,5-b]pyridin-6-yl)oxy)pyridin-2-yl)acetamide] | 35 to 45 |  | 6 to 12
12 | CC(=O)Nc1cc(Oc2cnc3nc(Nc4cc5n(n4)CCOCC5(C)C)n(C)c3c2C#N)ccn1 [Example I-118, N-(4-((7-cyano-2-((4,4-dimethyl-4,5,7,8-tetrahydropyrazolo[1,5-d][1,4]oxazepin-2-yl)amino)-1-methyl-1H-imidazo[4,5-b]pyridin-6-yl)oxy)pyridin-2-yl)acetamide] | < 17 |  | ≤ 6
